Values joined by “and” are separate entries in the source; they are usually repeats but may differ in a detail not shown here. Equal entries are not always repeated.
Experiments:
[1] = tested on: experimental autoimmune encephalomyelitis; conditions: 0.1 mg/kg p.o. or higher doses; cited from earlier work
peripheral lymphocytes = conditions: single oral dose; cited from earlier work
HUVECs = test: HUVEC Matrigel chemoinvasion (migration) assay; type: cell-based, human; conditions: 0.1-1 μM S1P
Method: FIG. 5 has two panels, A and B. In panel A, S1P is shown to promote neovascularization through induction of HUVECs tube formation and migration, which is reduced by SPHINGOMAB. […] The number of cells that migrated to the Matrigel membrane were counted in five independent fields.
Experiments were performed as described by Visentin et al. (Cancer Cell 2006 March; 9(3):225-38).

[2] = tested on: Matrigel plug neovascularization; test: In vivo Matrigel plug assay for neovascularization (S1P, VEGF, bFGF); parameters: species or system mice; conditions: Matrigel with 1 μM S1P
Method: Based on in vivo studies showing that S1P increased endothelial capillary growth into subcutaneously implanted Matrigel plugs, we speculated that SPHINGOMAB could reduce de novo BV formation in vivo. To investigate this, we employed the in vivo Matrigel Plug assay for neovascularization. In one set of experiments, Matrigel was supplemented with either 1 μM S1P, 0.5 μg/mL bFGF or 1 μg/mL VEGF and then […]. into mice (n=4). After 10 days, the mice were heparinized and injected with the fluorescent lectin, Isolectin B4-FITC, which binds to adhesion molecules expressed by vascular EC that form the growing BVs. The plugs were then excised, frozen in OCT, sectioned and viewed for FITC-stained BVs.
Sections of the plugs were then stained with hemotoxyln & eosin for evaluation of EC infiltration (FIG. 6B). The infiltration of ECs is a critical step in neo-vascularization. […] Cell infiltration is presumed to be ECs although we recognize that other cell types such as immune cells may also be stained.
Endogenous S1P from the blood and surrounding tissue could supply a wound with pro-angiogenic stimuli. The ability of SPHINGOMAB to reduce endogenous S1P in a wound was investigated. Optimally stimulated plugs (Matrigel supplemented with 0.5 μg/mL bFGF or […] VEGF) were implanted into mice. Mice received i.p. injections of 25 mg/kg SPHINGOMAB or saline every 48 hrs starting 1 day prior to Matrigel implantation. Each treatment group (Matrigel, Matrigel plus GF or Matrigel plus GF and administered SPHINGOMAB) consisted of a minimum of 6 mice. After 10 days, the mice were treated with heparin, injected with Isolectin B4-FITC, the plugs excised, embedded in OCT freezing medium and sectioned.

[3] = tested on: human retinal pigmented epithelial cells; test: alpha-SMA expression (myofibroblast transformation) in retinal pigmented epithelial cells; type: cell-based
Text: (§1) In many of these disorders, circulating growth factors and chemokines promote the transformation of normal ocular cells into fibrocontractile, scar tissue-producing cells that have been termed “myofibroblasts”. Normally, myofibroblasts are responsible for tissue repair as part of the wound healing response following injury. However altered number and function of myofibroblasts are implicated in diseases characterized by pathological scar tissue formation in the liver, skin, lung, kidney, heart and eyes. In the eye, transformation of retinal pigmented epithelial (RPE) cells to a myofibroblast phenotype is linked to formation of fibro-contractile membranes which cause retinal detachment and subsequent vision impairment. In addition, myofibroblast transformation of ocular fibroblasts can result in abnormal scar tissue production after eye injury leading to subsequent vision loss. Although many of the circulating protein factors in the eye that promote myofibroblast formation have been identified, nothing is known regarding the role of lysolipids such as S1P in this process. Therefore, we examined the effects of S1P on myofibroblast transformation of several human ocular cell lines.
In these experiments, the ability of S1P to promote α-SMA expression differed in a concentration dependent manner between the retinal pigmented epithelial cells and conjunctiva fibroblasts. […]

[4] = tested on: human conjunctiva fibroblasts; test: alpha-SMA and PAI-1 expression in conjunctiva fibroblasts; type: cell-based
Text: as §1
In these experiments, the ability of S1P to promote α-SMA expression differed in a concentration dependent manner between the retinal pigmented epithelial cells and conjunctiva fibroblasts. […] This difference is believed to result from increased S1P receptor expression in the epithelial cells compared to the fibroblasts. Due to increased S1P receptor expression levels, retinal pigmented epithelial cells are likely more sensitive to S1P at low concentrations. In contrast, at high S1P levels the receptors become […] or possibly even internalized leading to decreased stimulation by S1P.
Collagen is one of the primary structural proteins that supports all tissues in the body and is one of the main components of scar tissue. In the non-pathological setting, total collagen content within tissue is maintained via a balance between collagen production by fibroblasts and degradation by certain enzymes. […]

COLO205 tumor = test: SC COLO205 colorectal tumor xenograft; type: in vivo, nude NCr (nu/nu) mice; conditions: LT1009 50 mg/kg ip q3d; Avastin 40 mg/kg iv q7d; Paclitaxel 15 mg/kg iv q1d×5
Method: Nude mice were implanted sc near the right flank with one fragment per mouse of COLO 205 tumor from an in vivo passage. All treatments were initiated the day when 60 mice in each experiment established tumors ranging in size from approximately 100 to 200 mm3. […] Avastin was administered iv at a dosage of 40 mg/kg/dose on a q7d schedule, injected in a volume of 0.1 mL/20 g body weight. Paclitaxel (positive control), was administered iv at a dosage of 15 mg/kg/dose on a q1d×5 schedule, injected in a volume of 0.1 mL/10 g body weight.
(§2) Animals were observed daily for mortality. Tumor dimensions and body weights were collected twice weekly starting with the first day of treatment and including the day of study termination. When the median tumor in the vehicle-treated control group in each study reached approximately 4,000 mg, the study was terminated. Tumors from each animal were harvested, wet weights were recorded, tumors were processed for determination of microvascular densities (MVD) by CD-31 staining. Tumor weights (mg) were calculated using the equation for an ellipsoid sphere (l×w^2)/2=mm^3, where l and w refer to the larger and smaller dimensions collected at each measurement and assuming unit density (1 mm^3=1 mg).

DU145 tumor = test: SC DU145 prostate tumor xenograft; type: in vivo, nude NCr (nu/nu) mice; conditions: LT1009 50 mg/kg ip q2d; Avastin 20 mg/kg q4d; Paclitaxel 7.5 mg/kg q1d×5
Method: Nude mice were implanted sc near the right flank with one fragment per mouse of DU145 tumor from an in vivo passage. All treatments were initiated the day when 60 mice in each experiment established tumors ranging in size from approximately 100 to 200 mm^3. […] Paclitaxel and Avastin were administered iv and ip at a dosage of 7.5 mg/kg/dose and 20 mg/kg/dose, q1d×5 and q4d, respectively, injected in a volume of 0.1 mL/10 g body weight.
During the course of the study tumor growth was monitored by measuring the sc tumors on three axes and calculating the volume. At the end of the study final tumor weights and volumes were determined and then the mice were sacrificed, the tumors harvested. Microvascular densities (MVD) of the tumors were then determined by CD-31 staining.

HT29 tumor = test: SC HT29 colorectal tumor xenograft; type: in vivo, athymic NCr-nu/nu mice; conditions: LT1009 50 mg/kg ip q2d; Avastin 20 mg/kg iv q4d; 5-FU 75 mg/kg ip q4d
Method: Nude mice were implanted sc near the right flank with one fragment per mouse of HT29 tumor from an in vivo passage. All treatments were initiated the day when 60 mice in each experiment established tumors ranging in size from approximately 100 to 200 mm^3. There were ten mice per treatment group. […] 75 mg/kg 5-FU and 20 mg/kg Avastin were administered ip and iv at a dosage of 75 mg/kg/dose and 20 mg/kg/dose, respectively, q4d, injected in a volume of 0.1 mL/10 g body weight.
as §2, with “recorded, and” for “recorded,”, “MVD” for “microvascular densities (MVD)”

RPMI 8226 tumor = test: RPMI 8226 human myeloma tumor xenograft; type: in vivo, CB17 SCID mice; conditions: LT1009 50 mg/kg IP Q3D to end; Bortezomib iv Q3D×6
Method: Nude mice (CB17 SCID, aged 4-5 weeks, weight 18-22 gm, female mice obtained from Harlan) were injected sc with RPMI 8226 cells harvested from tissue culture (˜1×10^7 cells/mouse). When tumors grew to approximately 100 mm^3 in size, animals were pair-matched by tumor size into treatment and control groups (10 mice per group). Initial dosing began Day 1 following pair-matching. Animals in all groups were dosed by weight (0.01 ml per gram; 10 ml/kg). […] Bortezomib was administered by intravenous injection via tail vein once every three days for six treatments (Q3D×6).
Individual and group mean tumor volumes±SEM are recorded twice weekly until study completion beginning Day 1. Final mean tumor volume±SEM for each group are reported at study completion; animals experiencing partial or complete tumor regressions or animals experiencing technical or drug-related deaths are censored from these calculations.

exudative AMD = conditions: 2 year MARINA trial and 1 year ANCHOR trial; cited from earlier work

CCCCCCCCc1ccc(CCC(N)(CO)CO)cc1.Cl [FTY720, 2-amino-2-(2-[4-octylphenyl]ethyl)-1,3-propanediol hydrochloride]
paralysis in EAE [1]: almost completely prevents paralysis
reduction of peripheral lymphocyte counts (peripheral lymphocytes): 30-70%

CCCCCCCCCCCCC/C=C/[C@@H](O)[C@@H](N)COP(=O)(O)O [S1P, sphingosine-1-phosphate]
stimulation of HUVEC migration over non-treated HUVECs (HUVECs): 2-2.5 fold
increase of EC infiltration in comparison to Matrigel only plugs [2]: 3 fold
S1P concentration at which a significant increase in α-SMA expression was observed [3]: 0.001 µM
production of α-Smooth muscle actin (α-SMA) [3]: stimulates production
PAI-1 expression [4]: stimulates the PAI-1 expression in a dose-dependent manner
S1P concentration at which a significant increase in α-SMA expression was observed [4]: 10 µM
production of α-Smooth muscle actin (α-SMA) [4]: stimulates production

CC(=O)O[C@H]1C(=O)[C@@]2(C)[C@H]([C@H](OC(=O)c3ccccc3)[C@]3(O)C[C@H](OC(=O)[C@H](O)[C@@H](NC(=O)c4ccccc4)c4ccccc4)C(C)=C1C3(C)C)[C@]1(OC(C)=O)CO[C@@H]1C[C@@H]2O [Paclitaxel]
% Reduction compared to Vehicle-Treated Mice (COLO205 tumor): 100%
Final Tumor Weights (COLO205 tumor): 0 mg
% Reduction compared to Vehicle-Treated Mice (DU145 tumor): 80%
Final Tumor Weights (DU145 tumor): 539 mg

O=c1[nH]cc(F)c(=O)[nH]1 [5-FU, 5-fluorouracil]
% Reduction compared to Vehicle-Treated Mice (HT29 tumor): 28%
Final Tumor Weights (HT29 tumor): 1963.71 mg

CC(C)C[C@H](NC(=O)[C@H](Cc1ccccc1)NC(=O)c1cnccn1)B(O)O [Bortezomib, reference compound]
% Reduction compared to Vehicle-Treated Mice (RPMI 8226 tumor): 20%
Final Tumor Weights (RPMI 8226 tumor): 1664 mg

Avastin: anti-angiogenic drug, bevacizumab (Avastin, Genentech)
% Reduction compared to Vehicle-Treated Mice (COLO205 tumor): 35%
Final Tumor Weights (COLO205 tumor): 1967.90 mg
% Reduction compared to Vehicle-Treated Mice (HT29 tumor): 30%
Final Tumor Weights (HT29 tumor): 1927.44 mg
% Reduction compared to Vehicle-Treated Mice (DU145 tumor): 80% and 79%
Final Tumor Weights (DU145 tumor): 578 mg

B1: RANIBIZUMAB: antibody fragment inhibiting all isoforms of VEGF-A (antibody, chains of the INN, looked up, V domains shown)
VH: EVQLVESGGGLVQPGGSLRLSCAASGYDFTHYGMNWVRQAPGKGLEWVGWINTYTGEPTYAADFKRRFTFSLDTSKSTAYLQMNSLRAEDTAVYYCAKYPYYYGTSHWYFDVWGQGTLVTVSS
VL: DIQLTQSPSSLSASVGDRVTITCSASQDISNYLNWYQQKPGKAPKVLIYFTSSLHSGVPSRFSGSGSGTDFTLTISSLQPEDFATYYCQQYSTVPWTFGQGTKVEIK
modifications: Fab
patients achieving some visual gain (exudative AMD): approximately 40%

Source: US8026342B2, “Compositions and methods for binding sphingosine-1-phosphate” (Lpath, Inc., priority 2006, dated 2011)
